pIC50: −log10 of the molar value.
Columns and labels:
[1] = Antiproliferative activity against human THP1 cells assessed as growth inhibition at 5 uM after 72 hrs by luminescent cell viability assay; format: functional; settings: THP-1, 72 h, read-out: GI
[2] = target: Receptor-type tyrosine-protein kinase FLT3 (Homo sapiens, UniProt P36888, ITD); assay: Inhibition of recombinant FLT3 ITD mutant (unknown origin) by RBC kinase assay
[3] = Antiproliferative activity against human HEK293T cells assessed as growth inhibition at 5 uM after 72 hrs by luminescent cell viability assay; format: cell-based, HEK-293T; settings: read-out: GI
MV4-11 [4] = assay: Antiproliferative activity against human MV4-11 cells after 72 hrs by luminescent cell viability assay; format: functional, cell-based; settings: MV4-11, 72 h
[5] = Antiproliferative activity against human HL60 cells assessed as growth inhibition at 5 uM after 72 hrs by luminescent cell viability assay; format: functional; settings: HL-60, 72 h, read-out: GI
[6] = target: T1, Receptor-type tyrosine-protein kinase FLT3 (Homo sapiens, UniProt P36888); assay: Inhibition of recombinant FLT3 (unknown origin) by TR-FRET assay
T1 sequence (P36888 whole entry): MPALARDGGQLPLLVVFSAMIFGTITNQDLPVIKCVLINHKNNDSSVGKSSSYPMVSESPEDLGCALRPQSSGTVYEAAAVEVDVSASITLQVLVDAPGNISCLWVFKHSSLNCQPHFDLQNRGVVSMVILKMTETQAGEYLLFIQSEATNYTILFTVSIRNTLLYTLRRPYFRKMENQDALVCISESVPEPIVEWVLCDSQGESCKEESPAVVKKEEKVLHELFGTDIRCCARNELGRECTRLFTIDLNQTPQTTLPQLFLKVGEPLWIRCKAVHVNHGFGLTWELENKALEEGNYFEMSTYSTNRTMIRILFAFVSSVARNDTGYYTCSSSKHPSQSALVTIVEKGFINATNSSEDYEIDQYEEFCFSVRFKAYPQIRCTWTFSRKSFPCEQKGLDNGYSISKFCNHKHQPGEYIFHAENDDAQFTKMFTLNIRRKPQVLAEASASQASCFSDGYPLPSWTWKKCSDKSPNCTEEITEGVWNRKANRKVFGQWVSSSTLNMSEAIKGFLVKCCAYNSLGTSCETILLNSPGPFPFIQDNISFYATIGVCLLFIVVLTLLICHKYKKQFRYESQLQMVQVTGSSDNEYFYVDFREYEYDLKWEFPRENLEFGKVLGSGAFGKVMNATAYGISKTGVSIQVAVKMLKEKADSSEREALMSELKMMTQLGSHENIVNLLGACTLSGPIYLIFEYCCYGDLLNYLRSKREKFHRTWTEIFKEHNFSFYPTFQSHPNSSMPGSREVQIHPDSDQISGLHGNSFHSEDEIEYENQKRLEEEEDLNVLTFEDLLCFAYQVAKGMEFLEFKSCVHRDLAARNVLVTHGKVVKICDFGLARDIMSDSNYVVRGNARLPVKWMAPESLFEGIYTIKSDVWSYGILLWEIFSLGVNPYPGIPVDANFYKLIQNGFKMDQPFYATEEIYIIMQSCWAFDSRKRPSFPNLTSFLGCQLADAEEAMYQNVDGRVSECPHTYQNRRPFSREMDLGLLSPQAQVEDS

[7] = target: Receptor-type tyrosine-protein kinase FLT3 (Homo sapiens, UniProt P36888, D835Y); assay: Inhibition of recombinant FLT3 D835Y mutant (unknown origin) by TR-FRET assay
K562 = assay: Antiproliferative activity against human K562 cells assessed as growth inhibition at 5 uM after 72 hrs by luminescent cell viability assay; format: functional; settings: K562, 72 h, read-out: GI
[8] = Antiproliferative activity against human THP1 cells after 72 hrs by luminescent cell viability assay; format: functional, cell-based; settings: THP-1, 72 h
MV4-11 [9] = assay: Antiproliferative activity against human MV4-11 cells assessed as growth inhibition at 5 uM after 72 hrs by luminescent cell viability assay; format: functional; settings: MV4-11, 72 h, read-out: GI
[10] = target: MAP kinase-interacting serine/threonine-protein kinase 1 (Homo sapiens) (UniProt Q9BUB5); assay: Inhibition of MNK1 (unknown origin) at 10 uM
[11] = target: MAP kinase-interacting serine/threonine-protein kinase 2 (Homo sapiens) (UniProt Q9HBH9); assay: Inhibition of MNK2 (unknown origin) at 10 uM
MAP kinase-interacting serine/threonine-protein kinase 2 (Homo sapiens), sequence (Q9HBH9 whole entry, looked up): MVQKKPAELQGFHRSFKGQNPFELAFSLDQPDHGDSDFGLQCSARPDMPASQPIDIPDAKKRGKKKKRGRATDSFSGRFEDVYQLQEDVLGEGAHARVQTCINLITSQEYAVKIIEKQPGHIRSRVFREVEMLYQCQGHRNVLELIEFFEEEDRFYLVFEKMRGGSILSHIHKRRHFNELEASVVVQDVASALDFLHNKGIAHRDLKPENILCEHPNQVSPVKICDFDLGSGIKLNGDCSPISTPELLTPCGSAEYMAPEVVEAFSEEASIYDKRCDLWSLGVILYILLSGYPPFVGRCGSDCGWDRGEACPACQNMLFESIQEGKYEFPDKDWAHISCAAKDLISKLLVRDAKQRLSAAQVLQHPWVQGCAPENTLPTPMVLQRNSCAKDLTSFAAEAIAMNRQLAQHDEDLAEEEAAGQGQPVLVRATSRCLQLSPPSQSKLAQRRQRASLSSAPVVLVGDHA

MAP kinase-interacting serine/threonine-protein kinase 1 (Homo sapiens), sequence (Q9BUB5 whole entry, looked up): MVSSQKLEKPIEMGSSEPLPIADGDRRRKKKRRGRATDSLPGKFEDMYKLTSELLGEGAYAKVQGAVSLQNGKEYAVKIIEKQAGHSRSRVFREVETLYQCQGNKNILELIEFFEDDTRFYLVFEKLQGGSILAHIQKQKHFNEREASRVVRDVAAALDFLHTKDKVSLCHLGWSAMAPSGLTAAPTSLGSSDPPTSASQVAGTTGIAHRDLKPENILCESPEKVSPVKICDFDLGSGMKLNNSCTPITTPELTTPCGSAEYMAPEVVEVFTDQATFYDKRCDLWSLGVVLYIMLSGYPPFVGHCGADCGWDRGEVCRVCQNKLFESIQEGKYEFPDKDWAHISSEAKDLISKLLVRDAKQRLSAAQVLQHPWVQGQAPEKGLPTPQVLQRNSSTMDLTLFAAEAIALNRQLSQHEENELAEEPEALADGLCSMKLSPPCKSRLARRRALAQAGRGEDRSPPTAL

| SMILES | inhibition of growth at 5 µM [1] [%] | pIC50 [2] | inhibition at 72 h, 5 µM [3] [%] | pIC50 (MV4-11 [4]) | inhibition of growth at 5 µM [5] [%] | pIC50 [6] | pIC50 [7] | inhibition of growth at 5 µM (K562) [%] | pIC50 [8] | inhibition of growth at 5 µM (MV4-11 [9]) [%] | inhibition [10] [%] | inhibition [11] [%] |
| --- | --- | --- | --- | --- | --- | --- | --- | --- | --- | --- | --- | --- |
| C=CS(=O)(=O)NC/C=C/c1cc(OC)cc(O)c1C(=O)OCC1CCCCC1 | 26.5 | ≤ 4.52 | 31.2 | 5.23 | 7.5 | ≤ 4.52 | ≤ 4.52 | 27.4 | 5.10 | 56.4 |  |  |
| COc1cc(O)c2c(c1)CCC[C@H](O)[C@H](O)C(=O)/C=C\C[C@H](C)OC2=O | 81.5 | 7.44 | 74.6 | 8.00 | 86 | 7.21 | 7.96 | 69.7 | 5.93 | 99.7 |  |  |
| C=CS(=O)(=O)NC/C=C/c1cc(OC)cc(O)c1C(=O)OC(C)C | 19.9 | 5.65 | 0.1 | 5.33 | 16.6 | 4.97 | 4.92 | 36.2 | 4.83 | 72.3 | 5.6 | 13.9 |
| COc1cc(O)c(C(=O)OC(C)C)c(/C=C/CN2C(=O)C=CC2=O)c1 | 41.8 | 5.01 | 8 | 5.76 | 65.7 | 6.27 | 5.87 | 95.7 | 5.14 | 99.8 | 5.4 | 4.1 |
| C=CS(=O)(=O)NC/C=C/c1cc(OC)cc(O)c1C(=O)OCC(C)c1ccccc1 (stereo unspecified) | 5.6 | ≤ 4.52 | 22.5 | 5.11 | 9.5 | ≤ 4.52 | ≤ 4.52 | 16.7 | < 5.00 | 9.6 |  |  |
| COc1cc(O)c(C(=O)OCC2CCCCC2)c(/C=C/CN2C(=O)C=CC2=O)c1 | 5.9 | < 4.52 | 6.9 | 5.71 | 71 | 5.57 | 5.68 | 85.1 | 5.11 | 99.8 | 9.7 | 0 |
| COc1cc(/C=C/CN2C(=O)C=CC2=O)c(C(=O)OC(C)C)c(OC(C)=O)c1 | 3.3 | 4.66 | 47.4 | 5.67 | 87.9 | 5.47 | 5.44 | 99.2 | 4.98 | 99.8 | 6.7 | 5 |
| CC(C)OC(=O)c1c(O)cc(OCCN2CCOCC2)cc1CCCN1C(=O)C=CC1=O | 81.5 | 5.05 | 13.3 | 5.45 | 98.9 | 6.24 | 6.09 | 99.3 | 5.27 | 99.8 | 8.8 | 1.8 |
| C/C=C/C(=O)NC/C=C/c1cc(OC)cc(O)c1C(=O)OC(C)C |  | ≤ 4.52 |  | < 5.00 |  | ≤ 4.52 | ≤ 4.52 |  |  |  |  |  |
| COc1cc(O)c(C(=O)OCC(C)c2ccccc2)c(/C=C/CN2C(=O)C=CC2=O)c1 (stereo unspecified) | 0 | < 4.52 | 0 | 5.47 | 56 | 5.52 | 5.28 | 74.9 | < 5.00 | 99 | 8.6 | 0 |
| CCN(CC)C/C=C/C(=O)NC/C=C/c1cc(OC)cc(O)c1C(=O)OC(C)C |  |  |  | < 5.00 |  | < 4.52 | 4.80 |  |  |  | 12.5 | 5.2 |
| CC(C)OC(=O)c1c(O)cc(OCCCN2CCOCC2)cc1/C=C/CN1C(=O)C=CC1=O | 62.5 | 6.01 | 38.8 | 5.72 | 89.1 | 6.82 | 6.03 | 95.9 | 5.10 | 99.8 | 8 | 3.1 |
| C/C=C/C(=O)NC/C=C/c1cc(OCCc2ccc(F)cc2)cc(O)c1C(=O)OC(C)C |  | ≤ 4.52 |  | < 5.00 |  | ≤ 4.52 | ≤ 4.52 |  |  |  |  |  |
| COc1cc(O)c(C(=O)OCc2ccc(F)cc2)c(/C=C/CN2C(=O)C=CC2=O)c1 | 0 | < 4.52 | 37.9 | 5.84 | 82.2 | 5.79 | 6.02 | 96.4 | 5.13 | 99.7 | 4.1 | 0 |
| C=CS(=O)(=O)NC/C=C/c1cc(OC)cc(O)c1C(=O)OCc1ccc(Br)cc1 | 31.2 | ≤ 4.52 | 0 | 5.22 | 8.1 | ≤ 4.52 | ≤ 4.52 | 38.4 | 5.20 | 61 |  |  |
| COc1cc(O)c(C(=O)OC(C)C)c(/C=C/CNC(C)=O)c1 |  |  |  | < 5.00 |  | < 4.30 | 4.85 |  |  |  |  |  |
| C=CS(=O)(=O)NC/C=C/c1cc(OC)cc(O)c1C(=O)OCc1ccc(F)cc1 | 41.7 | ≤ 4.52 | 0 | 5.29 | 10.9 | ≤ 4.52 | ≤ 4.52 | 52 | 5.18 | 70.5 |  |  |
| C=CS(=O)(=O)NCCCc1cc(OCCN2CCOCC2)cc(O)c1C(=O)OC(C)C | 0 | 5.37 | 28.4 | 5.12 | 2 | < 4.52 | 4.73 | 13.8 | < 5.00 | 20.4 |  |  |
| C=CC(=O)NC/C=C/c1cc(OCCc2ccc(F)cc2)cc(O)c1C(=O)OC(C)C | 23.2 | 5.08 | 25.8 | 5.35 | 12.2 | < 4.52 | < 4.52 | 18.5 | < 5.00 | 61.8 | 5.6 | 1.1 |
| C=CC(=O)NC/C=C/c1cc(OC)cc(O)c1C(=O)OC(C)C |  | ≤ 4.52 |  | < 5.00 |  | ≤ 4.52 | ≤ 4.52 |  |  |  |  |  |
| CCN(CC)C/C=C/C(=O)NC/C=C/c1cc(OC)cc(O)c1C(=O)O[C@@H](C)C(C)C |  | ≤ 4.52 |  | < 5.00 |  | ≤ 4.52 | ≤ 4.52 |  |  |  |  |  |
| C=CC(=O)NC/C=C/c1cc(OC)cc(O)c1C(=O)O[C@@H](C)C(C)C |  | ≤ 4.52 |  | < 5.00 |  | ≤ 4.52 | ≤ 4.52 |  |  |  |  |  |
| C/C=C/C(=O)NC/C=C/c1cc(OCCCN2CCOCC2)cc(O)c1C(=O)OC(C)C |  |  |  | < 5.00 |  | 4.79 | 4.98 |  |  |  | 5.8 | 12.9 |

From ChEMBL document CHEMBL3352474, “Design, synthesis and biological evaluation of FLT3 covalent inhibitors with a resorcylic acid core” (Bioorg Med Chem, 2014)
